“Also recorded” adds a separate entry of the source.
Test system: human erythrocytes
Assay: Erythrocyte ATP release
Assay type: cell-based
Procedure: Erythrocyte ATP release was measured in both the absence and presence of (a) the PGI2 agonist, treprostinil in the form of UT-15 or its vehicle, saline, and (b) alone or in combination with the selective PDE5 inhibitor, zapranist (ZAP, 10 μM).

| Structure (SMILES) | ATP release from erythrocytes (UT-15 30 nM alone, n=7) | ATP release from erythrocytes (UT-15 30 nM, cells pretreated with ZAP 10 μM, n=7) | ATP release from erythrocytes (UT-15 100 nM alone, n=7) | ATP release from erythrocytes (UT-15 100 nM, cells pretreated with ZAP 10 μM, n=7) | ATP release from erythrocytes compared to controls (UT-15 1 uM alone, n=7) | ATP release from human erythrocytes (UT-15 alone at 10 to 100 nM, FIG. 3) | ATP release from human erythrocytes (UT-15 alone, FIG. 2, concentration not printed in legend) | potentiation of UT-15-induced increases in ATP release (FIG. 2, concentration not printed in legend) | potentiation of UT-15-induced ATP release (ZAP 10 μM pretreatment, UT-15 1 uM, P<0.05) |
| --- | --- | --- | --- | --- | --- | --- | --- | --- | --- |
| CCCCC[C@H](O)CC[C@@H]1[C@H]2Cc3cccc(OCC(=O)O)c3C[C@H]2C[C@H]1O [UT-15, treprostinil] | no ATP release was detected | induce a response; also recorded: ATP release was stimulated | no ATP release was detected | induce a response; also recorded: ATP release was stimulated | increase in ATP release | does not stimulate ATP release | stimulates increases in ATP release | – | – |
| CCCOc1ccccc1-c1nc2nn[nH]c2c(=O)[nH]1 [zapranist] | – | – | – | – | – | – | – | potentiated | potentiated |
